Source: patent publication US20230192617A1, “AZABICYCLIC(THIO)AMIDES AS FUNGICIDAL COMPOUNDS” (Bayer CropScience Aktiengesellschaft, priority 2020, published 2023)

Columns and labels:
[1] = Measurement of Log P values by HPLC on reversed phase columns (EEC directive 79/831 Annex V.A8); format: physicochemical
Experimental: A-1.1. Measurement of Log P Values
Measurement of Log P values as provided herein was performed according to EEC directive 79/831 Annex V.A8 by HPLC (High Performance Liquid Chromatography) on reversed phase columns with the following methods:
^[a] Log P value is determined by measurement of LC-UV, in an acidic range, with 0.1% formic acid in water and acetonitrile as eluent (linear gradient from 10% acetonitrile to 95% acetonitrile).
^[b] Log P value is determined by measurement of LC-UV, in a neutral range, with 0.001 molar ammonium acetate solution in water and acetonitrile as eluent (linear gradient from 10% acetonitrile to 95% acetonitrile).
^[c] Log P value is determined by measurement of LC-UV, in an acidic range, with 0.1% phosphoric acid and acetonitrile as eluent (linear gradient from 10% acetonitrile to 95% acetonitrile).
If more than one Log P value is available within the same method, all the values are given and separated by “+”. […]

[2] = tested on: Colletotrichum lindemuthianum; experiment: B-8. Colletotrichum lindemuthianum in vitro cell test; format: cell-based; settings: 144 h, 20 ppm of active ingredient, 6 days incubation, liquid culture, absorbance, read-out: efficacy (inhibition of fungal growth)
Experimental: B-8. Colletotrichum lindemuthianum In Vitro Cell Test [table] Fungicides were solubilized in DMSO and the solution used to prepare the required range of concentrations. The final concentration of DMSO used in the assay was ≤1%. A spore suspension of C. lindemuthianum was prepared and diluted to the desired spore density. Fungicides were evaluated for their ability to inhibit spores germination and mycelium growth in liquid culture assay. The compounds were added in the desired concentration to the culture medium with spores. After 6 days incubation, fungi-toxicity of compounds was determined by spectrometric measurement of mycelium growth. Inhibition of fungal growth was determined by comparing the absorbance values in wells containing the fungicides with the absorbance in control wells without fungicides.

[3] = reversed phase HPLC column, method [a]: LC-UV, acidic range, 0.1% formic acid in water and acetonitrile as eluent
[4] = method [a]: LC-UV, acidic range, 0.1% formic acid in water and acetonitrile as eluent
[5] = method [b]: LC-UV, neutral range, 0.001 molar ammonium acetate solution in water and acetonitrile as eluent
[6] = reversed phase HPLC column, method [b]: LC-UV, neutral range, 0.001 molar ammonium acetate solution in water and acetonitrile as eluent

chromatographic logP [1, 3]	Compound	chromatographic logP [1, 4]	further results
2.43	O=C(O)c1c(Oc2cccc(Br)c2F)nnc2ccccc12 [1-35]		
	O=C(O)c1c(Oc2cccc(C3CC3)c2F)nnc2ccccc12 [1-18, 3-(3-cyclopropyl-2-fluoro-phenoxy)cinnoline-4-carboxylic acid]	2.23	
2.62	O=C(O)c1c(Oc2cccc(C(F)(F)F)c2)nnc2cc(F)ccc12 [1-38]		
2.48	O=C(O)c1c(Oc2cccc(Br)c2)cnc2ccccc12 [1-47]		
3.74	O=C(NCC(F)(F)c1ccc(Cl)cn1)c1c(Oc2cccc(C(F)(F)F)c2)cnc2ccccc12 [I-038]		inhibition at 20 ppm [2]: 70 to 79%
2.56	Cc1ccc(C(F)(F)CNC(=O)c2c(Br)cnc3nccnc23)c(C)c1 [3-01]		
	COC(=O)c1c(Oc2cccc(C(F)(F)F)c2)cnc2ccccc12 [1-13, methyl 3-(3-(trifluoromethyl)phenoxy)quinoline-4-carboxylate]	3.8	
1.28	O=C(O)c1c(Oc2cccc(Cl)c2)nnc2c1CCCC2 [1-28]		
4.38	CCOC(=O)c1c(Oc2cccc(C(F)(F)F)c2)nnc2cc(C)ccc12 [1-52]		
3.79	CCOC(=O)c1c(Oc2cccc(C3CC3)c2F)nnc2c1CCCC2 [1-25]		
2.18	Cc1cccc(Oc2cnc3ccccc3c2C(=O)O)c1 [1-43]		
	COC(=O)c1c(Oc2cccc(C(F)F)c2)nnc2ccccc12 [1-09]	3.06	
	O=C(O)c1c(Oc2cccc(Cl)c2F)nnc2c1CCCC2 [1-29, 3-(3-chloro-2-fluoro-phenoxy)-5,6,7,8-tetrahydrocinnoline-4-carboxylic acid]	1.46	chromatographic logP [1, 5]: 0.42
	COC(=O)c1c(Oc2cccc(C(F)(F)F)c2)nnc2ccccc12 [1-02]	3.62	
3.95	CCOC(=O)c1c(Oc2cccc(C(F)(F)F)c2)nnc2ccccc12 [1-42]		
2.49	CC1(C)CCc2c1nnc(Oc1cccc(C(F)(F)F)c1)c2C(=O)O [1-46]		
2.36	O=C(O)c1c(Oc2cccc(C3CC3)c2)nnc2ccccc12 [1-36]		
2.2	O=C(O)c1c(Oc2cccc(Br)c2)nnc2ccccc12 [1-48]		
3.51	CCOC(=O)c1c(Oc2cccc(C(F)(F)F)c2)nnc2cnccc12 [1-54]		
	O=C(O)c1c(Oc2cccc(C(F)F)c2)cnc2ccccc12 [1-41]	2.1	
	CCOC(=O)c1c(Oc2cccc(C(F)(F)F)c2)nnc2c1CCCC2 [1-22]	3.9	
3.92	C[C@H](NC(=O)c1c(Oc2ccc(Cl)cc2)nnc2ccccc12)c1cccc(C(F)(F)F)c1 (racemic) [I-204]		
3.72	CCOC(=O)c1c(Oc2cccc(Cl)c2)nnc2c1CCCC2 [1-24]		

chromatographic logP [1, 3]	Compound	chromatographic logP [1, 4]	further results
2.02	CC1(C)COc2nnc(Oc3cccc(C(F)(F)F)c3)c(C(=O)O)c2OC1 [1-20]		
	O=C(O)c1c(Oc2cccc(C3CC3)c2F)cnc2ccccc12 [1-51]	2.71	
2.74	Cc1ccc2c(C(=O)O)c(Oc3cccc(C(F)(F)F)c3)nnc2c1 [1-12, 7-methyl-3-(3-(trifluoromethyl)phenoxy)cinnoline-4-carboxylic acid]		
2.04	O=C(O)c1c(Oc2cccc(C(F)(F)F)c2)nnc2cnccc12 [1-05]		
	C#Cc1cccc(Oc2cnc3ccccc3c2C(=O)O)c1 [1-49]	2.2	
1.56	N#Cc1cccc(Oc2nnc3ccccc3c2C(=O)O)c1 [1-10]		
1.53	O=C(O)c1c(Oc2cccc(Cl)c2F)nnc2c1CCC2 [1-56]		
	O=C(O)c1c(Oc2cccc(C(F)(F)F)c2)cnc2ccoc12 [1-15, 6-[3-(trifluoromethyl)phenoxy]furo[3,2-b]pyridine-7-carboxylic acid]	2.08	
4.16	CCOC(=O)c1c(Oc2cccc(C(F)(F)F)c2)nnc2cc(F)ccc12 [1-58]		
	C=Cc1cccc(Oc2cnc3ccccc3c2C(=O)O)c1 [1-50]	2.41	
4.23	Cc1ccc(C(F)(F)CNC(=O)c2c(Oc3ccc(Cl)cc3)nnc3ccccc23)c(C)c1 [I-200]		
	Cc1cccc(Oc2nnc3ccccc3c2C(=O)O)c1 [1-04]	1.92	
1.83	O=C(O)c1c(Oc2cncc(C(F)(F)F)c2)nnc2ccccc12 [1-06]		
2.39	O=C(O)c1c(Oc2cccc(C(F)(F)F)c2)nnc2ccsc12 [1-57]		
3.23	Cc1ccc(C(F)(F)CNC(=O)c2c(Cl)nnc3ccccc23)c(C)c1 [3-02]		
	CC(C)OC(=O)c1c(Oc2cccc(Cl)c2)nnc2ccccc12 [1-14]	4.19	
3.37	CCOC(=O)c1c(Oc2cccc(Cl)c2F)nnc2c1CCC2 [1-40]		
	O=C(O)c1c(Oc2cccc(C(F)F)c2)nnc2ccccc12 [1-11]	1.87	
	CCOC(=O)c1c(Oc2cccc(C(F)F)c2)nnc2c1CCCC2 [1-23]	3.37	chromatographic logP [1, 5]: 3.19
3.21	O=C(O)c1c(Oc2cccc(C(F)(F)F)c2)nnc2cc(C3CC3)ccc12 [1-34]		
3.34	COC(=O)c1c(Oc2cccc(C(F)(F)F)c2)nnc2ccsc12 [1-55]		
	O=C(O)c1c(Oc2cccc(C(F)(F)F)c2)cnc2ccccc12 [1-07, 3-(3-(trifluoromethyl)phenoxy)quinoline-4-carboxylic acid]	2.57	
2.12	O=C(O)c1c(Oc2ccc(Cl)cc2)nnc2ccccc12 [1-16]		

chromatographic logP [1, 3]	Compound	chromatographic logP [1, 4]	further results
	O=C(O)c1c(Oc2cccc(Br)c2F)cnc2ccccc12 [1-39]	2.59	
4.4	CCOC(=O)c1c(Oc2cccc(C(F)(F)F)c2)nnc2c1CCC2(C)C [1-44]		
1.72	O=C(O)c1c(Oc2cccc(C3CC3)c2F)nnc2c1CCCC2 [1-30]		chromatographic logP [1, 6]: 0.6
1.38	O=C(O)c1c(Oc2cccc(C(F)(F)F)c2)nnc2c1COCC2 [1-33]		
2.84	N#Cc1cccc(Oc2nnc3ccccc3c2C(=O)NCC(F)(F)c2ccc(Cl)cn2)c1 [I-248]		chromatographic logP [1, 6]: 2.94; inhibition at 20 ppm [2]: 70 to 79%
	O=C(O)c1c(Oc2cccc(Cl)c2)nnc2ccccc12 [1-03]	2.07	
4.24	CCON(Cc1ccccc1)C(=O)c1c(Oc2cccc(C(F)(F)F)c2)nnc2ccccc12 [I-247]		
4.81	CCOC(=O)c1c(Oc2cccc(C(F)(F)F)c2)nnc2cc(C3CC3)ccc12 [1-53]		
2.64	COC(=O)c1c(Oc2cccc(C#N)c2)nnc2ccccc12 [1-08]		
	CCOC(=O)c1c(Oc2cccc(Br)c2F)nnc2c1CCCC2 [1-21]	3.85	
1.82	CC1(C)COc2c(nnc(Oc3cccc(C(F)(F)F)c3)c2C(=O)O)O1 [1-19]		
1.31	O=C(O)c1c(Oc2cccc(C(F)(F)F)c2)nnc2c1OCCO2 [1-17, 3-[3-(trifluoromethyl)phenoxy]-6,7-dihydro-[1,4]dioxino[2,3-c]pyridazine-4-carboxylic acid]		
3.92	O=C(N/C=C/c1ccccc1)c1c(Oc2cccc(C(F)(F)F)c2)cnc2ccccc12 [I-217]		
	O=C(O)c1c(Oc2cccc(C(F)F)c2)nnc2c1CCCC2 [1-32]	1.18	
2.59	O=C(O)c1c(Oc2cccc(C3CC3)c2)cnc2ccccc12 [1-45]		
4.02	CCOC(=O)c1c(Oc2cccc(Br)c2F)nnc2ccccc12 [1-37]		
	O=C(O)c1c(Oc2cccc(Br)c2F)nnc2c1CCCC2 [1-27]	1.55	chromatographic logP [1, 5]: 0.45
	O=C(O)c1c(Oc2cccc(C(F)(F)F)c2)nnc2c1CCCC2 [1-31]	1.6	chromatographic logP [1, 5]: 0.55
5.03	CON(CCc1ccc(Cl)cc1Cl)C(=O)c1c(Oc2cccc(C(F)(F)F)c2)nnc2ccccc12 [I-190]		
	CCOC(=O)c1c(Oc2cccc(Cl)c2F)nnc2c1CCCC2 [1-26, ethyl 3-(3-chloro-2-fluoro-phenoxy)-5,6,7,8-tetrahydrocinnoline-4-carboxylate]	3.76	chromatographic logP [1, 5]: 3.56
	O=C(O)c1c(Oc2cccc(C(F)(F)F)c2)nnc2ccccc12 [1-01]	2.27	
